Experimental data: US11911353B2, “Fatty acid synthase inhibitor and application thereof” (Jiangnan University, priority 2019, dated 2024)

How the values were obtained:
[1] = target: T1, fatty acid synthase (FASN) in colon cancer cells HCT116 (Homo sapiens, UniProt P49327); assay: FASN enzyme activity detection in treated HCT116 cells (NADPH absorbance at 340 nm); type: cell-based; details: HCT-116, 4 hours of incubation, read-out: FASN enzyme activity inhibition rate (%)
T1 construct: endogenous in cells; host or cells: HCT116 colon cancer cells
T1 sequence (P49327 whole entry): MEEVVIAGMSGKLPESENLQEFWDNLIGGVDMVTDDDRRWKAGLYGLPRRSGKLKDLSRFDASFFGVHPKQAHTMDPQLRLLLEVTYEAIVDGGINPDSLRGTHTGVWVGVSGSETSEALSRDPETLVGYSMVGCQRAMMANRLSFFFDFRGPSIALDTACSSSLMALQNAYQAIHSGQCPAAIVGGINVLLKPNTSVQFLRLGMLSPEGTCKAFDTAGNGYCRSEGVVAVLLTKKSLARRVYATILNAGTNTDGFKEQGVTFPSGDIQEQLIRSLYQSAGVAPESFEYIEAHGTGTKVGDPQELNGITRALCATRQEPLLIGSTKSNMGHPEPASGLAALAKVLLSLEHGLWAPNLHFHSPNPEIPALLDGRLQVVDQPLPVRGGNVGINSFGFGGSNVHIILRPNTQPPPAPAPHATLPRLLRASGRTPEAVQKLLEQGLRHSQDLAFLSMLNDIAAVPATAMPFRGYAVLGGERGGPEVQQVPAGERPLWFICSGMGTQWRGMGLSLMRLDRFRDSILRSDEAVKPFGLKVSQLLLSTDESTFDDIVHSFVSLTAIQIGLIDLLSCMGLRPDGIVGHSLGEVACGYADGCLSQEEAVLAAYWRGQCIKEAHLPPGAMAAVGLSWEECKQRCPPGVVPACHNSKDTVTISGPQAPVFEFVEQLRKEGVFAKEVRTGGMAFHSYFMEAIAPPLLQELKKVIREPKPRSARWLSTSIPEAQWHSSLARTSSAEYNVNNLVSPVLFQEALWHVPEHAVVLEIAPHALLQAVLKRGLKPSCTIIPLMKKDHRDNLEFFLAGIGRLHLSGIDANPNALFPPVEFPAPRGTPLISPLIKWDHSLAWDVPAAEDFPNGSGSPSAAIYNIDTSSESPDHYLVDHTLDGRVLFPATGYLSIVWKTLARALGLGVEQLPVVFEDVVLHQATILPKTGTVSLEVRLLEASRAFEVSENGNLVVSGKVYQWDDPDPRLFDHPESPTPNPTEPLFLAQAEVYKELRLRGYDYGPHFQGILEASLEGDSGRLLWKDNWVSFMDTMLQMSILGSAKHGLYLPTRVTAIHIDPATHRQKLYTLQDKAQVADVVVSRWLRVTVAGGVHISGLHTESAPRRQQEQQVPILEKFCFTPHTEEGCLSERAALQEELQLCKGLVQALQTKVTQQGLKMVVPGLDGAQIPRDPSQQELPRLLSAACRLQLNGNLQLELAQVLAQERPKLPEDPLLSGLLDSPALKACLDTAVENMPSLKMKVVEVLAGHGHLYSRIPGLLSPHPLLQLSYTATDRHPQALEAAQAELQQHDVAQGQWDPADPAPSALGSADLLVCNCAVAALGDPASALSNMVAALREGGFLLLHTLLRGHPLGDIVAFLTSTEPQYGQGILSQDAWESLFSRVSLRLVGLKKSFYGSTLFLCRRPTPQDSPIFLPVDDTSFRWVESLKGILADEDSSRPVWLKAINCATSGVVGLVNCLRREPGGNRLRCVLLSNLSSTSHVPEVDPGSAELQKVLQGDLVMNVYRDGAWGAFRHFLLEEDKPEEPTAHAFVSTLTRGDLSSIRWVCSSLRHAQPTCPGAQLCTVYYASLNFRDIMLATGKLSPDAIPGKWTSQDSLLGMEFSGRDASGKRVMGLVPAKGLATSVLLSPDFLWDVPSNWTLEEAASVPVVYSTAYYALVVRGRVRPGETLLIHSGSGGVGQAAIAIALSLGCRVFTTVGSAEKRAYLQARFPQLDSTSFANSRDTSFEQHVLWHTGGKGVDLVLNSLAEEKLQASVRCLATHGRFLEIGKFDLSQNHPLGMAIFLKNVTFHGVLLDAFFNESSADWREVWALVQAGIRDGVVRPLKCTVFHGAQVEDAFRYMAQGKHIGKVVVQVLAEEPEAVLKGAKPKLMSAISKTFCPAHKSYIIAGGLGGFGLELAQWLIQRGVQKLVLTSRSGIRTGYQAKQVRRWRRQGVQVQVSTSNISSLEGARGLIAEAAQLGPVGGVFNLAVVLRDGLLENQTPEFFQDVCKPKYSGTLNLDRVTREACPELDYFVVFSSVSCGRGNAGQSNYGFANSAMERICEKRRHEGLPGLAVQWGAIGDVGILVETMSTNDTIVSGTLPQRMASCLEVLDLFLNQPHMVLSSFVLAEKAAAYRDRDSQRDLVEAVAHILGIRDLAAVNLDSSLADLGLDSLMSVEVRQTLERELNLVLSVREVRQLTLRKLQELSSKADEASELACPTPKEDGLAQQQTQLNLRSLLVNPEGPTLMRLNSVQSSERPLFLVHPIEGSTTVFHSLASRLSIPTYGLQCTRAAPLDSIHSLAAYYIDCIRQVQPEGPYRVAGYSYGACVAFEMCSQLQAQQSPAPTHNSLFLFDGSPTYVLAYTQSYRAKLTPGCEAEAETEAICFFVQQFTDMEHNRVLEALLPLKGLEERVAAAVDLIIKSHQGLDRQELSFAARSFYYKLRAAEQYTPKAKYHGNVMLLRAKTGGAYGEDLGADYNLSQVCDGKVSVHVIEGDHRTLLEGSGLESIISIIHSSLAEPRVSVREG

[2] = test system: prostate cancer cells PC-3; assay: Fatty acid content and composition by GC/MS, PC-3 (FIG. 5); type: cell-based; details: PC-3, 20 μM, 24 hours
Text: […]

transplanted tumors PC3 = assay: Growth of transplanted tumors PC3 in nude mice (FIG. 8); type: in vivo; details: 5 mg/kg intraperitoneally every 2 days, four weeks
Text: […]

[3] = test system: tumor cells 22RV1, PC-3, HT-29, Hela, Hep G2, CaCo-2 and HCT116; assay: MTT proliferation of various tumor cells at single concentration (FIG. 2); type: cell-based; details: 10 μM, 72 hours, 7 different tumor cells
Text: Cell survival rate=(OD570−OD630)/(OD570 negative control−OD630 negative control); wherein, OD570: OD570 value of each treatment group; OD630: OD630 value of each treatment group; OD570 control: OD570 value of the negative control group; OD630 control: OD630 value of the negative control group.

[4] = test system: prostate cancer cells PC-3; assay: Growth cycle of PC-3 cells, PI staining flow cytometry (FIG. 3); type: cell-based; details: 10 μM treatment group, 24 hours; control group 10.34%
Text: […]

[5] = test system: colon cancer cells HCT116; assay: Fatty acid content and composition by GC/MS, HCT116 (FIG. 5); type: cell-based; details: HCT116, 20 μM, 24 hours
Text: […]

SMILES: O=C(CCCC(=O)Nc1ccc(Br)cc1)N/N=C/c1cc(Br)ccc1O [Compound I-1]
- inhibition at 20 µM [1]: 58.6%
- fatty acid content of 16:0 [2]: lower than that of the control group
- total fatty acid content [2]: significantly lower than that of the control group
- HE staining of transplanted tumor tissue (transplanted tumors PC3; FIG. 8B): dark dotted area is significantly reduced
- tumor mass of mice (transplanted tumors PC3; PC3 transplanted tumors): significantly lower than that of the control group
- effect on proliferation of tumor cells [3]: significantly improved inhibitory effect on tumor proliferation
- proportion of PC3 cells in S phase [4]: 19.10%
- fatty acid content of 16:0 [5]: lower than that of the control group
- total fatty acid content [5]: significantly lower than that of the control group
